Nine compounds from BindingDB's records for doi:10.1016/j.bmcl.2005.03.024 (Johnson & Johnson Pharmaceutical, 2005) can be followed below.

For the first assay, the target named is Cyclin-dependent kinase/G2/mitotic-specific cyclin- 1 (Homo sapiens, UniProt P06493). The assay is described as follows: Kinase Inhibition Assay.
Cyclin-dependent kinase/G2/mitotic-specific cyclin- 1, sequence (P06493 whole entry): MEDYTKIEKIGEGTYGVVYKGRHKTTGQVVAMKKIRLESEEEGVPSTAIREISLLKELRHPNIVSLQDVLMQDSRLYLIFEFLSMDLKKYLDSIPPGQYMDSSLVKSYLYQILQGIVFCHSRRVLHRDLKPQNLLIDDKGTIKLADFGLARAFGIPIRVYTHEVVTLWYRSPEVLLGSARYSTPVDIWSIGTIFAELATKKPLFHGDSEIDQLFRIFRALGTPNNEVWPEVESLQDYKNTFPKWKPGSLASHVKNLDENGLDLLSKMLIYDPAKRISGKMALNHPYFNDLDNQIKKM
Cyclin-dependent kinase/G2/mitotic-specific cyclin- 1, sequence (P14635 whole entry, further chain): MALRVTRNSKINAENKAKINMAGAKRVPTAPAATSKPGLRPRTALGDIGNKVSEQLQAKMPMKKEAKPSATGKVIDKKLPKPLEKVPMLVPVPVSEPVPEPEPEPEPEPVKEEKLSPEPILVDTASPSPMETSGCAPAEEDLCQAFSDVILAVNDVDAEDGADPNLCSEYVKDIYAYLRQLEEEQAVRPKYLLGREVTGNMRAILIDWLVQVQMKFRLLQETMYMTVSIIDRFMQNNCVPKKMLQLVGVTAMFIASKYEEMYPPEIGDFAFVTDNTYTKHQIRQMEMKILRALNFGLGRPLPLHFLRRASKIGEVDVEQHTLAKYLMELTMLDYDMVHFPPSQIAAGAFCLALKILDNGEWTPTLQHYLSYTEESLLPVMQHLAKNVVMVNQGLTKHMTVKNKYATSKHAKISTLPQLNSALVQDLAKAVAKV
Conditions: not given
On the procedure:
The enzyme was assayed with a biotinylated peptide substrate and test compounds in the presence of 10 uM ATP/[gamma-33P]ATP in a streptavidin coated FlashPlate (Perkin-Elmer, Boston, MA). Inhibition of the enzymatic activity due to the compound was measured by observing a reduced amount of 33P-gamma-ATP incorporated into the immobilized peptide relative to untreated controls. Linear regression analysis of the percent of inhibition by the test compound was used to calculate IC50 values.
For the compound `Nc1ccc(C(=O)c2ccco2)c(N)n1` [3-(furan-2-ylcarbonyl)pyridine-2,6-diamine], the 50% inhibitory concentration (IC50) is over 100 µM.
The same measure, in the same setting: under `Nc1ccc(C(=O)c2cccs2)c(N)n1` [3-(thiophen-2-ylcarbonyl)pyridine-2,6-diamine] stands over 100 µM.
Same read-out and setting: then `Nc1nc(Nc2ccc(S(=O)(=O)N(Cc3ccccc3)Cc3ccccc3)cc2)ccc1C(=O)c1c(F)cccc1F` [4-({6-amino-5-[(2,6-difluorophenyl)carbonyl]pyridin-2-yl}amino)-N,N-dibenzylbenzene-1-sulfonamide], with over 10 µM.
The same measure, in the same setting: under `CCN(CC)S(=O)(=O)c1ccc(Nc2ccc(C(=O)c3ccccc3)c(N)n2)cc1` [4-[(6-amino-5-benzoylpyridin-2-yl)amino]-N,N-diethylbenzene-1-sulfonamide] stands over 100 µM.
Regarding `CCN(CC)S(=O)(=O)c1ccc(Nc2ccc(C(=O)c3ccco3)c(N)n2)cc1` [4-{[6-amino-5-(furan-2-ylcarbonyl)pyridin-2-yl]amino}-N,N-diethylbenzene-1-sulfonamide], the half-inhibitory concentration (IC50) is over 100 µM.

The same assay, now with this note: pH 8; 30 °C.
`Nc1nc(Nc2ccccc2[N+](=O)[O-])ccc1C(=O)c1c(F)cccc1F` [5-[(2,6-difluorophenyl)carbonyl]-2-N-(2-nitrophenyl)pyridine-2,6-diamine] came in with an IC50 of over 10 µM.
The same measure, in the same setting: then `CC(=O)Nc1ccccc1Nc1ccc(C(=O)c2c(F)cccc2F)c(N)n1` [N-[2-({6-amino-5-[(2,6-difluorophenyl)carbonyl]pyridin-2-yl}amino)phenyl]acetamide], with over 100 µM; and `Nc1nc(Nc2ccccc2NC(=O)c2ccccc2)ccc1C(=O)c1c(F)cccc1F` [N-[2-({6-amino-5-[(2,6-difluorophenyl)carbonyl]pyridin-2-yl}amino)phenyl]benzamide], with over 100 µM.
Still for that read-out and setting: then `Nc1nc(Nc2ccccc2NS(=O)(=O)c2ccccc2)ccc1C(=O)c1c(F)cccc1F` [N-[2-({6-amino-5-[(2,6-difluorophenyl)carbonyl]pyridin-2-yl}amino)phenyl]benzenesulfonamide], with over 100 µM.

A word on the IC50: it is the concentration needed to halve the response being measured. Lower therefore signals higher potency.
